Here are results for 27 compounds from article PMC9599641, “TNP Analogues Inhibit the Virulence Promoting IP3-4 Kinase Arg1 in the Fungal Pathogen Cryptococcus neoformans” (Biomolecules, 2022).

A word on the IC50: it is the midpoint of a concentration-inhibition curve.

Common to all, as to type: biochemical
For one test, the target named is HsIPMK (Homo sapiens, UniProt Q8NFU5). Briefly: Kinase-Glo enzyme inhibition assay, recombinant HsIPMK. Further: 6 ng/µL enzyme. Details: GST (N, cleaved yes); made in house; host or cells: E. coli BL21 (DE3); plasmid made by GenScript. As to the method:
(§1) The 2,6-disubstituted purine compounds are ATP-competitive IPK inhibitors. […] The amount of IP3 and kinase used for each recombinant enzyme was determined following the manufacturer’s instructions, and this concentration was used to assess the inhibitory properties of TNP analogues against each of the recombinant enzymes.
(§2) The analogues were dissolved in DMSO. For the assay, the inhibitors were added to the reaction mixture to achieve a final concentration of 50 µM in 5% DMSO (1:20 dilution). To achieve inhibitor concentrations lower than 50 µM in the assay, the inhibitor stock was first serially diluted two-fold in DMSO and added to the reaction mixture, to achieve concentrations ranging between 0.8 μM and 50 µM in 5% DMSO. Once all analogues and their dilution series had been added, the reaction was started by adding an optimal amount of recombinant IP3-4K enzyme. The reaction was stopped after 10-min incubation at room temperature by adding a 50 µL of Kinase-Glo® reagent. The mixture was incubated at room temperature in the dark for 10–15 min. Luminescence (RLU) was measured using a SpectraMax iD5 and an integration time of 0.5 s. Percent enzyme activity was defined as (RLUnegative − RLUsample)/(RLUnegative − RLUpositive) × 100. ‘Positive’ refers to 100% enzyme activity (no inhibitor used as the positive control), while ‘negative’ refers to 0% enzyme activity (no enzyme used as the negative control).
(§3) Next, we determined the inhibitory properties of TNP. TNP is an ATP-competitive inhibitor [34]. […] IP3 and enzyme concentrations were also optimised following the manufacturer’s instructions. […] This optimal amount of IP3 was then used to test varying concentrations of the kinase ranging from 0 to 20 ng/µL. The amount of kinase that produced luminescence values in the linear range of the kinase titration curve was deemed to be the optimal kinase amount.

The subject of test [1] is CnArg1 (IP3-4K from C. neoformans). Briefly: Kinase-Glo enzyme inhibition assay, recombinant CnArg1. To be noted: selectivity, ratio higher than 1 = more selective for CnArg1. As to the method: as §1, §2, §3
In general terms: Kinase-Glo measures the ATP left after a reaction by luminescence.

Test [2] deals with CnArg1 (IP3-4K from C. neoformans) (Cryptococcus neoformans var. grubii, UniProt J9W3G0). The test is described as above. The settings on record: 10 µM ATP, 50 µM IP3, 2.5 ng/µL enzyme, 10 min, room temperature, 5% DMSO; mean ± SEM. As to the method: as §1, §2, §3
CnArg1 (IP3-4K from C. neoformans) (Cryptococcus neoformans var. grubii, UniProt J9W3G0), sequence (J9W3G0 entry or part of it): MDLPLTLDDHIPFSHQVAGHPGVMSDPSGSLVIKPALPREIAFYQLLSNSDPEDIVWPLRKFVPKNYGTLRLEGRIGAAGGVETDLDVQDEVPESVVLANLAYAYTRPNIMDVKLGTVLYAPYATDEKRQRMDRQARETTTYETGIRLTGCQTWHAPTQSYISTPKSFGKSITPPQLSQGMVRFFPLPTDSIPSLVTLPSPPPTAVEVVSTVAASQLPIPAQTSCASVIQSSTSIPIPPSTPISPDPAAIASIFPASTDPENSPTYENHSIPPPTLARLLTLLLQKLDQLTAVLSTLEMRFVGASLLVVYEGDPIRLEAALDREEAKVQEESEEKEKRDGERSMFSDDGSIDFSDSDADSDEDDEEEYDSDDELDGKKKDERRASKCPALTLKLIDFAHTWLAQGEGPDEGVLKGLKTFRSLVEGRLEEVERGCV

HsIPMK, sequence (Q8NFU5 whole entry): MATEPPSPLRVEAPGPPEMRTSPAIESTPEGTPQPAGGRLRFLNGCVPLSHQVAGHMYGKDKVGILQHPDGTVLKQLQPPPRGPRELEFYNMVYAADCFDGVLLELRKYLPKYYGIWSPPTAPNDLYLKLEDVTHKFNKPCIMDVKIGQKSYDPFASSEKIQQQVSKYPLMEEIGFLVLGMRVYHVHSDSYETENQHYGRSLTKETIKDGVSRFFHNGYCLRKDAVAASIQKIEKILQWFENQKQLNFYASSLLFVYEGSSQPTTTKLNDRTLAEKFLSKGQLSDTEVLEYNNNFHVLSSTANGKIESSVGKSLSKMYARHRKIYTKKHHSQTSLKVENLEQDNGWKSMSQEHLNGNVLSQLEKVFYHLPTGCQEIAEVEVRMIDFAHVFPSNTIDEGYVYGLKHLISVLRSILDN

Consider `FC(F)Oc1cccc(CNc2nc(NCc3ccccc3)c3nc[nH]c3n2)c1` [Compound 10], for which the 50% inhibitory concentration (IC50) at HsIPMK is 55 ± 2 µM; in test [2], 20 ± 1 µM. Also, the “HsIPMK/CnArg1 IC50 ratio” value in test [1] came to 2.8.

With `FC(F)(F)Oc1cccc(CNc2nc(NCc3ccccc3)c3nc[nH]c3n2)c1` [Compound 12], the IC50 in test [2] turned out to be 77 ± 14 µM.

Turning to `COc1cccc(CNc2nc(NCc3ccccc3)c3nc[nH]c3n2)c1` [Compound 13], the “HsIPMK/CnArg1 IC50 ratio” value in test [1] is listed as 6.0.

In the case of `Brc1cccc(CNc2nc(NCc3ccccc3)c3nc[nH]c3n2)c1` [Compound 14], the concentration for half-maximal inhibition (IC50) in test [2] is 44 ± 2 µM.

On to `NCc1cccc(CNc2nc(NCc3ccccc3)c3[nH]cnc3n2)c1` [Compound 15], for which the half-inhibitory concentration (IC50) in test [2] is 46 ± 22 µM.

Turning to `COC(=O)c1cccc(CNc2nc(NCc3ccccc3)c3nc[nH]c3n2)c1` [Compound 16], the concentration for half-maximal inhibition (IC50) is 48 ± 2 µM on HsIPMK and 14 ± 1 µM in test [2]. For the same compound, the “HsIPMK/CnArg1 IC50 ratio” value in test [1] is recorded as 3.4.

For the compound `O=C(O)c1cccc(CNc2nc(NCc3ccccc3)c3nc[nH]c3n2)c1` [Compound 17], in test [2], the concentration for half-maximal inhibition (IC50) is 45 ± 3 µM.

Regarding `FC(F)(F)Oc1ccccc1CNc1nc(NCc2ccccc2)c2nc[nH]c2n1` [Compound 20], the concentration for half-maximal inhibition (IC50) in test [2] was found to be 71 ± 12 µM.

Regarding `FC(F)(F)Oc1ccccc1CNc1nc(NCc2ccccc2)c2nc[nH]c2n1` [Compound 21], the IC50 in test [2] worked out at 57 ± 6 µM.

`FC(F)(F)Oc1ccc(CNc2nc(NCc3ccccc3)c3nc[nH]c3n2)cc1` [Compound 22]: the “CnArg1 IC50” value in test [2] is listed as “Not inhibitory”.

With `Fc1ccc(CNc2nc(NCc3ccccc3)c3nc[nH]c3n2)cc1` [Compound 23], the IC50 was 55 ± 4 µM on HsIPMK and 21 ± 1 µM in test [2]. Also, the “HsIPMK/CnArg1 IC50 ratio” value in test [1] was 2.6.

Take `COc1ccccc1CNc1nc(NCc2ccccc2)c2nc[nH]c2n1` [Compound 24]: the results for the IC50 (at HsIPMK; in test [2]) were 89 ± 9 µM and 24 ± 1 µM, respectively. For the same compound, in test [1], the “HsIPMK/CnArg1 IC50 ratio” value turned out to be 3.7.

Consider `c1ccc(CNc2nc(NCc3ncccn3)nc3[nH]cnc23)cc1` [Compound 25], for which the “CnArg1 IC50” value in test [2] is on record as “Not inhibitory”.

With `Cn1ccnc1CNc1nc(NCc2ccccc2)c2nc[nH]c2n1` [Compound 26], the “CnArg1 IC50” value in test [2] was “Not inhibitory”.

With `c1ccc(CNc2nc(NCC3CCOCC3)nc3[nH]cnc23)cc1` [Compound 27], the IC50 came out at 123 ± 80 µM at HsIPMK and 35 ± 2 µM in test [2]. In addition, the “HsIPMK/CnArg1 IC50 ratio” value in test [1] was 3.5.

In the case of `OCCNc1nc(NCc2ccccc2)c2[nH]cnc2n1` [Compound 28], the IC50 in test [2] worked out at 127 ± 32 µM.

Consider `COCCNc1nc(NCc2ccccc2)c2nc[nH]c2n1` [Compound 29], for which the IC50 in test [2] stood at 75 ± 9 µM.

In the case of `COCCNc1nc(NCc2cccc(C(F)(F)F)c2)nc2[nH]cnc12` [Compound 30], in test [1], the “HsIPMK/CnArg1 IC50 ratio” value is 2.4.

Take `COCCNc1nc(NCc2cccc(Br)c2)nc2[nH]cnc12` [Compound 31]: the half-maximal inhibitory concentration (IC50) was found to be 43 ± 4 µM at HsIPMK and 29 ± 3 µM in test [2]. Also, the “HsIPMK/CnArg1 IC50 ratio” value in test [1] is 1.5.

Regarding `COCCNc1nc(NCc2cccc(C(=O)O)c2)nc2[nH]cnc12` [Compound 34], the “CnArg1 IC50” value in test [2] is “Not inhibitory”.

Take `COCCNc1nc(NCc2cccnc2)nc2[nH]cnc12` [Compound 35]: the half-inhibitory concentration (IC50) in test [2] was 87 ± 9 µM.

For `COCCNc1nc(NCc2cccc(O)c2)nc2[nH]cnc12` [Compound 36], the IC50 in test [2] is 55 ± 6 µM.

With `COCCNc1nc(NCc2ccc(OC)cc2)nc2[nH]cnc12` [Compound 38], in test [2], the IC50 turned out to be 44 ± 6 µM.

In the case of `FC(F)(F)c1cccc(CNc2nc(NC3CCOCC3)c3nc[nH]c3n2)c1` [Compound 42], in test [1], the “HsIPMK/CnArg1 IC50 ratio” value came to 3.7.

In the case of `COc1ccc(CNc2nc(NCc3cccc(C(F)(F)F)c3)nc3[nH]cnc23)cc1` [Compound 44], the IC50 in test [2] is 82 ± 13 µM.

Consider `CC(C)n1cnc2c(NCc3ccccc3)nc(NCc3cccc(C(F)(F)F)c3)nc21` [Compound 45], for which the “CnArg1 IC50” value in test [2] is “did not have any inhibitory activity”.

For the compound `COCCNc1nc(NCc2cccc(Br)c2)nc2c1ncn2C` [Compound 46], in test [2], the “CnArg1 IC50” value is reported as “did not have any inhibitory activity”.
